Laboratory results: patent US20250312411A1, “Treatment of Multi-Drug-Resistant Cancers Using Nanoparticulate Drug Delivery Vehicles” (priority 2024, published 2025)

Assays:
Format in all cases: cell-based
DS TNBC cells = experiment: Wound healing assay (cell migration), drug sensitive cells; settings: AS-LNP at 10 PM and 30 PM, n=10, FIG. 6A
From the text: (§1) SNARE proteins mediate EV release but also mediate the fusion of TNTs with recipient cells.

MDR TNBC cells = experiment: Wound healing assay (cell migration), MDR cells; settings: AS-LNP at 10 PM and 30 PM, n=10, FIG. 6B
From the text: as §1

[1] = system: tunneling nanotubes (TNTs) in 50:50 DS/MDR MDA-MB-231 cells; experiment: Number of TNTs/cm^2 counted in 50:50 DS/MDR co-culture after treatment; settings: 50:50 DS/MDR ratio of MDA-MB-231 cells, n=25, FIG. 4C

Compound: O=C(/C=C/c1ccc(/C=C/C(=O)Nc2ccc(C3=NCCN3)cc2)cc1)Nc1ccc(C2=NCCN2)cc1 [GW4869]
- cell migration in wound healing assay (DS TNBC cells): did not decrease cell migration
- cell migration in wound healing assay (MDR TNBC cells): did not decrease cell migration

Compound: C/C1=C\[C@@H](C)C/C=C/[C@H]2[C@@H]3O[C@]3(C)[C@@H](C)[C@H]3[C@H](Cc4c[nH]c5ccccc45)NC(=O)[C@]32C(=O)/C=C/C(=O)[C@@H]1O [CA, chaetoglobosin A]
- number of TNTs/cm^2 [1]: significantly reduced the number of TNTs

Compound: CN(C)C(=N)N=C(N)N [metformin]
- number of TNTs/cm^2 [1]: more effective in reducing the number of TNTs
